Measurements as given in patent US20240131204A1, “Fractionated Dosing of a Phospholipid Ether Analog for the Treatment of Cancer” (Cellectar Biosciences, Inc., priority 2019, published 2024).

Experiments:
[1] = system: OPM-2 cell line (human multiple myeloma); assay: OPM-2 multiple myeloma subcutaneous xenograft in CB17 SCID mice (tumor volume, doubling time, survival, body weight); type: in vivo; details: for tolerability: repeated/fractionated dosing versus the single equal dose
Method: The OPM-2 cell line (human multiple myeloma) was purchased from American Type Culture Collection (ATCC, Rockville, MD) and maintained in McCoy's 5a media supplemented with 10% fetal bovine serum. Female CB17 SCID mice approximately 5-7 weeks of age were injected subcutaneously with 1×10^7 viable cells (in ˜100 μL Dulbecco's PBS) into the right flank. The study was initiated when tumor size had reached a pre-determined size (approximately 150-200 mm3). The mice were given potassium iodide at a concentration of 0.1% in their drinking water to block possible free iodide in the drug formulation three days prior to injection and continuing through two weeks post-injection. Mice were randomly assigned to dose groups. Tumor volume was measured with a caliper during the course of the study. Tumor doubling time calculation TDT=D×log(2)/log(1+r/100), where D equals days between measurements and r=rate of growth; r/100=(V2−V1/V1)×100%. Statistical analysis: 1-way Anova, Dunnett's test.

[2] = Clinical trial: single bolus dose (Cohort 4) versus fractionated dose (Cohort 5); type: in vivo, human
Method: Dosing is based upon body surface area or BSA in millicuries/meter squared (mCi/m^2). Patients either received a single 30 minute infusion of 31.25 mCi/m^2 on day 1 or a 30 minute fractionated infusion dose of 15.625 mCi/m^2 on day 1 and then repeated on day 8.

[3] = system: xenograft, orthotopic and transgenic cancer and cancer stem cell derived animal models; assay: Tumor selectivity, uptake and retention in animal tumor models; type: in vivo; details: variety of tumor models
[4] = system: xenograft, orthotopic and transgenic cancer and cancer stem cell derived animal models; details: radioiodinated CLR1404; cited from earlier work

Row | Compound | antitumor activity ([1]; all doses, model of multiple myeloma) | survival ([1]; fractionated dosing) | tumor doubling time ([1]; fractionated dosing versus all other treatments) | reduction in tumor volume vs control ([1]; fractionated dosing, after day 26) | reduction in tumor volume vs all other treatments ([1]; fractionated dosing, day 52, p<0.05) | tolerability [1] | average reduction in surrogate markers of efficacy ([2]; fractionated dose (Cohort 5)) [%] | average progression free survival ([2]; fractionated dose (Cohort 5), assessment ongoing) [months] | median overall survival ([2]; fractionated dose, 15.625 mCi/m^2 on day 1 and day 8 (Cohort 5), assessment still ongoing) [months] | average progression free survival ([2]; single bolus dose (Cohort 4)) [months] | average reduction in surrogate markers of efficacy ([2]; single bolus dose (Cohort 4)) [%] | median overall survival ([2]; single bolus dose, 31.25 mCi/m^2 on day 1 (Cohort 4)) [months] | sequestration and retention by cancer cells and cancer stem cells [3] | tumor selectivity (models showing it / models tested) [4]
1 | ^131I-labeled 18-(p-iodo-phenyl)octadecyl phosphocholine [CLR 131] | marked antitumor activity | statistically significant survival benefit | markedly increased | statistically significant reduction | statistically significant reduction | well tolerated and better tolerated than the single equal dose | 40 | 2.9 | 7.4 | 2.8 | 29 | 6.5 |  | 
2 | C[N+](C)(C)CCOP(=O)([O-])OCCCCCCCCCCCCCCCCCCc1ccc(I)cc1 [CLR1404] |  |  |  |  |  | well tolerated and is better tolerated than a single equal dose |  |  |  |  |  |  | sequestered and selectively retained | 55/60
